US6713265B1 (Synaptic Pharmaceutical Corporation, priority 1999, dated 2004)
Several values for one entry are separate records, joined by “and”; a condition that tells them apart may be missing. Equal entries are not always repeated. Structures can show the parent of a compound that is named as a salt.

Experiments:
[1] = tested on: NPY-induced feeding behavior; assay: NPY-induced food intake in satiated rats; type: in vivo, rat; details: for Food intake, NPY + compound: compound 10 mg/kg i.p. then 300 pmole NPY i.c.v., 4 hours
Experimental: For these determinations food intake may be measured in normal satiated rats after intracerebroventricular application (i.c.v.) of NPY in the presence or absence of the test compound. Male Sprague Dawley rats (Ciba-Geigy AG, Sisseln, Switzerland) weighing between 180 g and 220 g are used for all experiments. The rats are individually housed in stainless steel cages and maintained on an 11:13 h light-dark cycle (lights off at 18:00 h) at a controlled temperature of 21-23° C. at all times. Water and food (NAFAG lab chow pellets NAFAG, Gossau, Switzerland) are available ad libidum.
Rats under pentobarbital anesthesia are stereotaxically implanted with a stainless steel guide cannula targeted at the right lateral ventricle. Stereotaxic coordinates, with the incisor bar set −2.0 mm below interaural line, are: −0.8 mm anterior and +1.3 mm lateral to bregma. The guide cannula is placed on the dura. Injection cannulas extend the guide cannulas −3.8 mm ventrally to the skull surface. Animals are allowed at least 4 days of recovery postoperatively before being used in the experiments. Cannula placement is checked postoperatively by testing all rats for their drinking response to a 50. ng intracerebroventricular (i.c.v.) injection of angiotensin II. Only rats which drink at least 2.5 ml of water within 30 min. after angiotensin II injection are used in the feeding studies.
All injections are made in the morning 2 hours after light onset. Peptides are injected in artificial cerebrospinal fluid (ACSF) in a volume of 5 μl. ACSF contains: NaCl 124 mM, KCl 3.75 mM, CaCl2 2.5 mM, MgSO4 2.0 mM, KH2PO4 0.22 mM, NaHCO3 26 mM and glucose 10 mM. Porcine-NPY (p-NPY) are dissolved in artificial cerebrospinal fluid (ACS). For i.c.v. injection the test compounds are preferably dissolved in DMSO/water (10%, v/v). The vehicle used for intraperitoneal (i.p.), subcutaneous (s.c.) or oral (p.o.) delivery of compounds is preferably water, physiological saline or DMSO/water (10% v/v), or cremophor/water (20% v/v), respectively.
Animals which are treated with both test compounds and porcine-NPY are treated first with the test compound.
Food intake may be measured by placing preweighed pellets into the cages at the time of NPY injection. Pellets are then removed from the cage subsequently at each selected time point and replaced with a new set of preweighed pellets. The food intake of animals treated with test compound may be calculated as a percentage of the food intake of control animals i.e., animals treated with vehicle. Alternatively, food intake for each group of animals subjected to a particular experimental condition may be expressed as the mean±S.E.M. Statistical analysis is performed by analysis of variance using the Student-Newman-Keuls test.
Food intake is reported as the mean±S.E.M. intake for a group of animals.

food intake = assay: Food intake in food-deprived rats; type: in vivo, rat; details: 30 mg/kg i.p., after 24h food deprivation
Experimental: After receipt, the animals are individually housed for the duration of the study and allowed free access to normal food together with tap water. The animals are maintained in a room with a 12 h light/dark cycle (8:00 a.m. to 8:00 p.m. light) at 24° C. and monitored humidity. After placement into individual cages the rats undergo a 4 day equilibration period, during which they are habituated to their new environment and to eating a powdered or pellet diet NAFAG, Gossau, Switzerland).
At the end of the equilibration period, food is removed from the animals for 24 hours starting at 8:00 a.m. At the end of the fasting period compound or vehicle may be administered to the animals orally or by injection intraperitoneally or intravenously. After 10-60 min. food is returned to the animals and their food intake is monitored at various time periods during the following 24 hour period. The food intake of animals treated with test compound may be calculated as a percentage of the food intake of control animals (i.e., animals treated with vehicle). Alternatively, food intake for each group of animals subjected to a particular experimental condition may be expressed as the mean±S.E.M.
Measurements were performed two hours after administration of the test compound.

α2c = target: T1, α2c (Homo sapiens, UniProt P18825); assay: Binding at cloned human α2c adrenergic receptor
T1 sequence (P18825 1-462): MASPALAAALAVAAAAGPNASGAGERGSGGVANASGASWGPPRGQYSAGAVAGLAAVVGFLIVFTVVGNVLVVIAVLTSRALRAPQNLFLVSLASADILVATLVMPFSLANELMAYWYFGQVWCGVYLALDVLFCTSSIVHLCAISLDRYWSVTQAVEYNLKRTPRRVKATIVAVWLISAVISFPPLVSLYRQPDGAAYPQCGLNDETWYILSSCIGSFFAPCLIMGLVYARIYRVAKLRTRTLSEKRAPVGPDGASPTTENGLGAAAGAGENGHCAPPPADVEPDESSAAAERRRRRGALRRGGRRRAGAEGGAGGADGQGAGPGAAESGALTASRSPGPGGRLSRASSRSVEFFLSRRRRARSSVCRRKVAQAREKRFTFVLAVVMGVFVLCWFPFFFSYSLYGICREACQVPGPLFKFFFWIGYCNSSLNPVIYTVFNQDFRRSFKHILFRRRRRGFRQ

human Y4 receptor = target: T2, human Y4 receptor (Homo sapiens, UniProt P50391); assay: ^125I-PYY binding to membranes, cloned human Y4 receptor; details: read-out: Binding Affinity Ki vs. ^125I-PYY, Human Receptor Y4; Table 14; stably transfected LM(tk-) cells
T2 construct: expressed in transfected cells; host or cells: COS-7 (transient)

human Y2 receptor = target: T3, human Y2 receptor (Homo sapiens, UniProt P49146); assay: ^125I-PYY binding to membranes, cloned human Y2 receptor; details: read-out: Binding Affinity Ki vs. ^125I-PYY, Human Receptor Y2; Table 14; stably transfected 293 cells (compound 1 also COS-7)
T3 construct: expressed in transfected cells; host or cells: COS-7 (transient)
T3 sequence (P49146 1-381): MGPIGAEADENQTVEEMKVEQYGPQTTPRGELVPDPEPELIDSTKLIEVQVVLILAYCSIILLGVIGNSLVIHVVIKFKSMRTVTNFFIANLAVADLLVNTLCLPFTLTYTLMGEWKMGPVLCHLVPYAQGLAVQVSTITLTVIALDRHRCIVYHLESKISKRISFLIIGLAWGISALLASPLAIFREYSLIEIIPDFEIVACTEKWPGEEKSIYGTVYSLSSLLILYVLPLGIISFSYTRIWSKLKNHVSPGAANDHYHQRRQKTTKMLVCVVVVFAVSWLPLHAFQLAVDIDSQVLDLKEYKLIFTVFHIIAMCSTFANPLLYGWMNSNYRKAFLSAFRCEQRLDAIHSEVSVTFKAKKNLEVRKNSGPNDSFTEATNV

human Y5 receptor [2] = target: T4, human Y5 receptor (Homo sapiens, UniProt Q15761); assay: Radioligand binding to membranes of cells expressing cloned human Y5 receptor; design: Ki Values, Human Y5; apparent Kd; pKd; The isolated clone (CG-19) turned out to contain a full length cDNA; The longest open reading frame encodes a 455 amino acid protein; details: read-out: Binding Affinity Ki vs. ^125I-PYY, Human Receptor Y5; Table 14; stably transfected LM(tk-) cells
T4 sequence (Q15761 1-445): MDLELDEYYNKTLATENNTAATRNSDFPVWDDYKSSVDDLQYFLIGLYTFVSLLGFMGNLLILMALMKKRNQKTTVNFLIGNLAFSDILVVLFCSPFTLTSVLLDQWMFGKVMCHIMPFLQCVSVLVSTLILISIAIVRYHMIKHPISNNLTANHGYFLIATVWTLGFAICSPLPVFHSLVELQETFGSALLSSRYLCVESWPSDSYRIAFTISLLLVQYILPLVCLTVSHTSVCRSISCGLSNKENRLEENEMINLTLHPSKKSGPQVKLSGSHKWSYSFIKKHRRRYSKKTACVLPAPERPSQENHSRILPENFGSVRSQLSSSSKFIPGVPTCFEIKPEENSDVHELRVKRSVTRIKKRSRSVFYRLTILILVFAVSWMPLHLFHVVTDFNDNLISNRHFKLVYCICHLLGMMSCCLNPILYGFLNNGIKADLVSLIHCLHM

human Y1 receptor = target: T5, human Y1 receptor (Homo sapiens, UniProt P25929); assay: ^125I-PYY binding to membranes, cloned human Y1 receptor; details: read-out: Binding Affinity Ki vs. ^125I-PYY, Human Receptor Y1; Table 14; stably transfected 293 cells (compound 1 also COS-7)
T5 construct: expressed in transfected cells; host or cells: COS-7 (transient)
T5 sequence (P25929 1-384): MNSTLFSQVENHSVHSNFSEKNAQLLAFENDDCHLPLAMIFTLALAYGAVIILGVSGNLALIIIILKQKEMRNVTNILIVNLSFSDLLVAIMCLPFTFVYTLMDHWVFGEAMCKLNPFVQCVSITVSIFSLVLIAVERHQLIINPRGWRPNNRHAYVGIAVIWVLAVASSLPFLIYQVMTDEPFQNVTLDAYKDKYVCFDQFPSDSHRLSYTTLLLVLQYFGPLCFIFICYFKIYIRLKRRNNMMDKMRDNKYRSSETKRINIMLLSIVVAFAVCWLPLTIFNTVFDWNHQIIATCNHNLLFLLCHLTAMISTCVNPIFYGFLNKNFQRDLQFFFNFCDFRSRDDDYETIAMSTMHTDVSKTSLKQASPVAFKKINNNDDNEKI

human Y5 receptor [3] = target: T4, human Y5 receptor; assay: Radioimmunoassay of cAMP, cells stably expressing human Y5 receptor; type: cell-based; design: Ki Values, Human Y5; apparent Kd; pKd; The isolated clone (CG-19) turned out to contain a full length cDNA; The longest open reading frame encodes a 455 amino acid protein; details: block of NPY-induced inhibition of cAMP accumulation, forskolin-stimulated LM(tk-) cells, human Y5
Experimental: LM(tk-) cells stably transfected with the human Y5 receptor were routinely converted from an adherent monolayer to a viable suspension. […] The cell suspension was maintained in a shaking incubator at 37° C., 5% CO2 for 24 hours. […] Alternatively, cells may be returned to adherent cell culture in complete DMEM by distribution into 96-well microtiter plates coated with poly-D-lysine (0.01 mg/ml) followed by incubation at 37° C., 5% CO2 for 24 hours.
The maximum inhibition of cAMP accumulation (Emax) and the concentration producing a half-maximal effect (EC50) were determined by nonlinear regression analysis according to a 4 parameter logistic equation.
The ability of the compounds to antagonize the Y-type receptors is reported as the Kb. […] The results shown are representative of at least three independent experiments.

T2 sequence (P50391 whole entry): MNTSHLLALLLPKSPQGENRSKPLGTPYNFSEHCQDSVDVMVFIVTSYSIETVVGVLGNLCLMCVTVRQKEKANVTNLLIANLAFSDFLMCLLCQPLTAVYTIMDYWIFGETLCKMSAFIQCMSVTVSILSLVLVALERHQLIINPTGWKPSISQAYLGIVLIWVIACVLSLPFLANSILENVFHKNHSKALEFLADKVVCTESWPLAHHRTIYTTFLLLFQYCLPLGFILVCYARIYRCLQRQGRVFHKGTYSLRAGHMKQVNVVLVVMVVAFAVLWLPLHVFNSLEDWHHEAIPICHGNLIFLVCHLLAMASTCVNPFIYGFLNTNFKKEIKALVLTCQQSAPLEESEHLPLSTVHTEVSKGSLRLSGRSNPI

Question: How did the “Food intake, NPY + compound” value ([1]; mean ± S.E.M.) turn out when `c1ccc(Nc2nc(Nc3ccccc3)c3ccccc3n2)cc1` [Compound 1, 2,4-Diphenylamino-guinazoline hydrochloride] was run?
Answer: 4.6 ± 0.6 g

Question: Which “Two-hour food intake of food-deprived rats, percentage of intake compared to control rats, Mean” value (food intake) does the source give for `Nc1nc(NCCCCCCNS(=O)(=O)c2cccc3ccccc23)nc2ccccc12` [Compound 2, Naphthalene-1-sulfonic acid [6-(4-amino-quinazolin-2-ylamino)-hexyl]-amide] here?
Answer: 42%

Question: With `Cl.Nc1nc(NC[C@H]2CC[C@H](CNS(=O)(=O)c3cccc4ccccc34)CC2)nc2ccccc12` [Compound 5, trans-Naphthalene-1-sulfonic acid {4-[(4-amino-quinazolin-2-ylamino)-methyl]-cyclohexylmethyl}-amide hydrochloride] as the compound, how does the “Food intake, NPY + compound” value ([1]; mean ± S.E.M.) read?
Answer: 4.1 ± 0.4 g

Question: What does the source list for `Cl.Cl.c1ccc(Nc2nc(Nc3ccc(N4CCCCC4)cc3)nc3ccccc23)cc1` [Compound 6, 2-[4-(Piperidin-1-yl)-phenylamino]-4-Phenylamino-quinazoline dihydrochloride]?
Answer: Ki (α2c): 0.447 µM; Two-hour food intake of food-deprived rats, percentage of intake compared to control rats, Mean (food intake): 38%

Question: For `CC(=O)O[C@H]1CC[C@H](Nc2nc(Nc3ccccc3)c3ccccc3n2)CC1.Cl` [Compound 7, trans-2-(4-Acetoxy-cyclohexylamino)-4-Phenylamino-quinazoline hydrochloride], which “Two-hour food intake of food-deprived rats, percentage of intake compared to control rats, Mean” value (food intake) is on record?
Answer: 47%

Question: Which “Two-hour food intake of food-deprived rats, percentage of intake compared to control rats, Mean” value (food intake) does the source give for `COc1ccc(Nc2nc(Nc3ccccc3)c3cccc(OC)c3n2)cc1.Cl` [Compound 9, 8-Methoxy-2-(4-methoxy-phenylamino)-4-phenylamino-quinazoline hydrochloride] here?
Answer: 40%

Question: For `CNS(=O)(=O)Cc1ccc(Nc2nc(Nc3ccccc3)c3cc(OC)ccc3n2)cc1` [Compound 10, N-Methyl-[4-(6-methoxy-4-phenylamino-quinazolin-2-ylamino)-phenyl1-methanesulfonamide hydrochloride], which “Two-hour food intake of food-deprived rats, percentage of intake compared to control rats, Mean” value (food intake) is on record?
Answer: 74%

Question: With `CNS(=O)(=O)Cc1ccc(Nc2nc(Nc3ccccc3)c3ccccc3n2)cc1.Cl` [Compound 11, N-Methyl-[4-(4-Phenylamino-quinazolin-2-ylamino)-phenyl]-methanesulfonamide hydrochloride] as the compound, how does the “Two-hour food intake of food-deprived rats, percentage of intake compared to control rats, Mean” value (food intake) read?
Answer: 15%

Question: Which results are given for `Cl.O=S(=O)(NC[C@H]1CC[C@H](CNCc2ccc3ccccc3c2)CC1)c1ccccc1C(F)(F)F` [Compound 21]?
Answer: Ki (human Y4 receptor): 18.5 µM; Ki (human Y2 receptor): 1.61 µM; Two-hour food intake of food-deprived rats, percentage of intake compared to control rats, Mean (food intake): 80%; Ki (human Y5 receptor [2]): 0.0098 µM; Ki (human Y1 receptor): 13 µM

Question: Which Ki (human Y4 receptor) does the source give for `Cl.O=S(=O)(NC[C@H]1CC[C@H](CNCc2cccc3ccccc23)CC1)c1ccccc1C(F)(F)F` [Compound 23] here?
Answer: 21.5 µM

Question: What about the Ki (human Y2 receptor) of the same compound?
Answer: 0.617 µM

Question: And the Kb (human Y5 receptor [3])?
Answer: 0.038 µM

Question: And the “Two-hour food intake of food-deprived rats, percentage of intake compared to control rats, Mean” value (food intake)?
Answer: 58%

Question: And the Ki (human Y5 receptor [2])?
Answer: 0.026 µM

Question: What about the Ki (human Y1 receptor) of the same compound?
Answer: 14.5 µM

Question: How did the Ki (human Y4 receptor) turn out when `Cl.Cl.O=[N+]([O-])c1ccccc1S(=O)(=O)NC[C@H]1CC[C@H](CNCc2ccc3ccccc3n2)CC1` [Compound 26] was run?
Answer: 19.3 µM

Question: And the Ki (human Y2 receptor)?
Answer: 58.2 µM

Question: And the “Two-hour food intake of food-deprived rats, percentage of intake compared to control rats, Mean” value (food intake)?
Answer: 73%

Question: And the Ki (human Y1 receptor)?
Answer: 23.7 µM

Question: For “NPY: peptide neurotransmitter neuropeptide Y, 36 amino acids; feeding studies used 300 pmole of porcine NPY i.c.v.”, which “Food intake, NPY” value ([1]; 300 pmole NPY i.c.v. alone, cumulative intake 4 hours after NPY, mean ± S.E.M.) is on record?
Answer: 7.4 ± 0.5 g and 6.8 ± 1.0 g and 5.8 ± 0.5 g and 4.9 ± 0.4 g

Question: And the “food intake of NPY-stimulated animals compared to vehicles” value ([1]; 300 pmole i.c.v., p<0.05 Student-Newman-Keuls)?
Answer: significantly induce food intake
